pIC50: −log10 of the molar value. Read-outs that look alike come from different tables or passages of the source.
Columns and labels:
[1] = target: T1, human recombinant acetylcholinesterase (Homo sapiens, UniProt P22303); test: Inhibition of acetylcholinesterase in vitro (modified Ellman colorimetric method, Dixon plot); assay type: biochemical; conditions: human recombinant AChE, 25° C., 30 minutes preincubation, 0.3 mM acetylthiocholine, pH 8
T1 construct: purchased Sigma Chemical Co (St. Louis, Mo.) C1682
T1 sequence (P22303 32-614): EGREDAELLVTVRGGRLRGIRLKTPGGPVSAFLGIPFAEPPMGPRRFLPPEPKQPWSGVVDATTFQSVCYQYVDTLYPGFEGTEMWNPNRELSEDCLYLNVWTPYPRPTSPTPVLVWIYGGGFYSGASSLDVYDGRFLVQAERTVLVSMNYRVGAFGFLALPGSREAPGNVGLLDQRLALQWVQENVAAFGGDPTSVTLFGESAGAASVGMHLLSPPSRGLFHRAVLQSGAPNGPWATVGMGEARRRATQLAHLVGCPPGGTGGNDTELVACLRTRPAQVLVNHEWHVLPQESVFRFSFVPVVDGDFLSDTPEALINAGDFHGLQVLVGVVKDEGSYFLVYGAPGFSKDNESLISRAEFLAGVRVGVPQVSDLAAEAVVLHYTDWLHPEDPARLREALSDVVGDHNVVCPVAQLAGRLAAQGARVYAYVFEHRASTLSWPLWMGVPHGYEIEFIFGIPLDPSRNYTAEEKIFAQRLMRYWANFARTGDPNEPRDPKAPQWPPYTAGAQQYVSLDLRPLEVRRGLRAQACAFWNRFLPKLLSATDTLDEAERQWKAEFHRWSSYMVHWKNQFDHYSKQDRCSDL

[2] = test system: male CD IGS (Sprague Dawley derived) rats; test: Determination of the dose range and time course for cholinergic effects (gross signs, salivation); conditions: s.c., doses 1, 3, 10, 30 and 100 mg/kg; observed up to 4 hours
Method: (§1) The induction of hypothermia was determined for compounds of the invention according to the methods described in Freedman, et al., European Journal of Pharmacology, 187 (1990), 193-199, which is incorporated by reference herein. Dose range and time course for cholinergic effects of the compounds of the invention was also determined.
(§2) The dose range and time course for cholinergic effects of the compounds of the invention was determined as described below.
(§3) Subjects: Two hundred eight male CD IGS (Sprague Dawley derived) rats were received at 126-150 grams and maintained four per cage on a regular light/dark cycle (lights on 0600-1800) with ad libitum food and water for about 1 week before commencement of experimentation. Apparatus: Injection was done with a 25-gauge ⅝-inch needle on a 1-mL tuberculin syringe. Observation was done in a 5½-×10-inch polycarbonate rat housing cage. Temperature was taken with a rat rectal probe on a Model BAT-12 electronic thermometer. Compound Preparation: Test compounds were dissolved for example, in 0.9% saline. Concentrations for lower doses were prepared by taking aliquots from higher concentrations and diluting. Injection volumes were 1 mL/kg, if the test compound was sufficiently soluble. If less soluble, maximum injection volume were 5 mL/kg. Route of administration was s.c. As sample protocol is as follows: Treatment Groups included (N=3, with 6 for Saline)
(§4) Procedure: The rats were brought to the test room in the home cage. Baseline temperature were be taken just before injection. After injection s.c., the rat was placed in the observation cage. At 0.5, 1, 2, and 4 hours after injection, it was observed briefly for gross signs; salivation was scored as absent, clearly present, or copious; and rectal temperature was taken. In observation for gross signs, special attention was paid to fasciculation (muscle twitch), tremor/ataxia, and abnormal gait.

AChE = AChE (Homo sapiens, UniProt P22303); test: In vitro screening assay, AChE inhibition (spectrophotometric quantitation of thiocholine); assay type: biochemical; conditions: 700 μM acetylthiocholine, pH 7.4, 25° C.; for AChEI (%) 1 μM: 1 μM compound; for AChEI (%) 10 μM: 10 μM compound
Sequence of AChE (P22303 32-614): as above

[3] = test system: male CD IGS (Sprague Dawley derived) rats; test: Measurement of hypothermia (rectal temperature); assay type: in vivo; conditions: Rattus norvegicus, sc, read-out: Hypothermia MED
Method: as §1, with “determined. […]” for “determined.”
as §2, §3, §4

BuChE = BuChE (Homo sapiens, UniProt P06276); test: In vitro screening assay, BuChE inhibition; assay type: biochemical; conditions: for BuChEI (%) 1 μM: 1 μM compound; for BuChEI (%) 10 μM: 10 μM compound
Sequence of BuChE (P06276 29-602): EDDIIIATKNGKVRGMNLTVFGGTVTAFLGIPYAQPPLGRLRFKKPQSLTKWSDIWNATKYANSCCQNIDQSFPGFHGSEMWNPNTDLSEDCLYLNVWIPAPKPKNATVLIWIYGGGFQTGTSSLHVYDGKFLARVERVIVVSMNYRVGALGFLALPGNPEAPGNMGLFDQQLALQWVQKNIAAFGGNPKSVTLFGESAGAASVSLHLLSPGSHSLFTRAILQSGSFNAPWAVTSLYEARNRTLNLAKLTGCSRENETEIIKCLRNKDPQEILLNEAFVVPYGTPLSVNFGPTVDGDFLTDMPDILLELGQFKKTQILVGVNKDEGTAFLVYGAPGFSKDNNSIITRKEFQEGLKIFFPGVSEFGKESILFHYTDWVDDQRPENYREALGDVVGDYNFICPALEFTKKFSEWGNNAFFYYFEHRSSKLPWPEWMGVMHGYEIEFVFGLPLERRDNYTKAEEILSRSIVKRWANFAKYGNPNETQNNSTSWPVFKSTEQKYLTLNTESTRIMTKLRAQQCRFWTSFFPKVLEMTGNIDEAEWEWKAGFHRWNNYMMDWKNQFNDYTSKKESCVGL
Source text: (§5) An in vitro screening assay with compounds of the invention was completed according to the methods described in Ellman G L et al., Biochem Pharmacol., 7:88-95 (1961) and in Nadarajah B, J. Anal. Toxicol., 16:192-193 (1992), both of which are herein incorporated by reference in their entireties.
as §5, with “entireties. The assay method was completed according to the following: […]” for “entireties.”

[4] = minimum effective dose for hypothermia, s.c., temperature at 0.5, 1, 2 and 4 hours after injection

`C[C@@H](c1cccc(OC(=O)N[C@@H]2C[C@H]2c2ccccc2)c1)N(C)C` [Compound 2, S-rivastigmine-tranylcypromine] was tested, and the pIC50 [1] was 6.70, the “Max Tolerated Dose” value [2] was 30 and the “AChEI (%) 1 μM” value (AChE) was 84%. For the same compound, the “AChEI (%) 10 μM” value (AChE) was 97%, the minimal effective dose [3, 4] was 10 mg/kg and the “BuChEI (%) 1 μM” value (BuChE) was 23%. The “BuChEI (%) 10 μM” value (BuChE) was 67%.
For `C[C@@H](c1cccc(OC(=O)N2CCC(=C3c4ccc(Cl)cc4CCc4cccnc43)CC2)c1)N(C)C` [Compound 15, S-rivastigmine-desloratidine], the pIC50 [1] was 4.90, the “Max Tolerated Dose” value [2] was “≧100” and the “AChEI (%) 10 μM” value (AChE) was 36%. The minimal effective dose [3] was 3 mg/kg and the “BuChEI (%) 10 μM” value (BuChE) was 6%.
In the case of `CCN(C)C(=O)Oc1cccc([C@H](C)N(C)C)c1` [Compound 1, S-rivastigmine, reference compound], the minimal effective dose [3, 4] was at most 0.1 mg/kg.
For `CC(CC1CCCCC1)N(C)C(=O)Oc1cccc([C@H](C)N(C)C)c1` (stereo partly shown) [Compound 13, S-rivastigmine-propylhexedrine], the “AChEI (%) 1 μM” value (AChE) was 62%, the “AChEI (%) 10 μM” value (AChE) was 99% and the minimal effective dose [3, 4] was 10 mg/kg. For the same compound, the “BuChEI (%) 1 μM” value (BuChE) was 37% and the “BuChEI (%) 10 μM” value (BuChE) was 100%.
In the case of `C[C@@H](c1cccc(OC(=O)N(C)CCc2ccccn2)c1)N(C)C` [Compound 11, S-rivastigmine-betahistine], the pIC50 [1] was 4.88, the “Max Tolerated Dose” value [2] was 30 and the “AChEI (%) 10 μM” value (AChE) was 47%. For the same compound, the minimal effective dose [3] was under 1 mg/kg, the “BuChEI (%) 1 μM” value (BuChE) was 45% and the “BuChEI (%) 10 μM” value (BuChE) was 100%.
Compound `C[C@@H](c1cccc(OC(=O)N2CCN(C3=Nc4ccccc4Oc4ccc(Cl)cc43)CC2)c1)N(C)C` [Compound 3, S-rivastigmine-amoxapine] has a minimal effective dose [3, 4] of 10 mg/kg.
Compound `C[C@@H](c1cccc(OC(=O)N(C)CCC(Oc2ccc(C(F)(F)F)cc2)c2ccccc2)c1)N(C)C` (stereo partly shown) [Compound 7, S-rivastigmine-fluoxetine] has a minimal effective dose [3, 4] of 3 mg/kg.
For `CCOC(=O)C1=C(COCCNC(=O)Oc2cccc([C@H](C)N(C)C)c2)NC(C)=C(C(=O)OC)C1c1ccccc1Cl` (stereo partly shown) [Compound 12, S-rivastigmine-amlodipine], the pIC50 [1] was 5.43, the “AChEI (%) 1 μM” value (AChE) was 20% and the “AChEI (%) 10 μM” value (AChE) was 79%. The “BuChEI (%) 10 μM” value (BuChE) was 6%.
With `C[C@@H](c1cccc(OC(=O)N[C@@]23CC4C[C@@](C)(C[C@@](C)(C4)C2)C3)c1)N(C)C` [Compound 17, S-riva memantine] the pIC50 [1] was 5.24.
`C[C@@H](c1cccc(OC(=O)N(C)CCC=C2c3ccccc3CCc3ccccc32)c1)N(C)C` [Compound 5, S-rivastigmine-nortriptyline] was tested, and the “Max Tolerated Dose” value [2] was “≧100” and the minimal effective dose [3, 4] was at most 1 mg/kg.
Work on `C[C@@H](c1cccc(OC(=O)N(C)CCCN2c3ccccc3CCc3ccccc32)c1)N(C)C` [Compound 4, S-rivastigmine-desipramine] yielded a minimal effective dose [3, 4] of 3 mg/kg.
Compound `C[C@@H](c1cccc(OC(=O)NCC(CC(=O)O)c2ccc(Cl)cc2)c1)N(C)C` (stereo partly shown) [Compound 19, S-riva baclofen] has a pIC50 [1] of 4.77.
`C[C@@H](c1cccc(OC(=O)NC23CC4CC(CC(C4)C2)C3)c1)N(C)C` [Compound 16, S-riva- amantadine] showed a pIC50 [1] of 4.14.
`C[C@@H](c1cccc(OC(=O)N(C)CCCC2c3ccccc3C=Cc3ccccc32)c1)N(C)C` [Compound 6, S-rivastigmine-protriptyline] gave a minimal effective dose [3, 4] of 100 mg/kg.
Compound `CC(C)C[C@@H](CNC(=O)Oc1cccc([C@H](C)N(C)C)c1)CC(=O)O` [Compound 18, S-riva pregabalin] has a pIC50 [1] of 4.60.
For `C[C@@H](c1cccc(OC(=O)N2CCN(c3cc4c(cc3F)c(=O)c(C(=O)O)cn4C3CC3)CC2)c1)N(C)C` [Compound 20, S-riva ciprofloxacin], the pIC50 [1] was 4.27.
In the case of `CC(NC(=O)Oc1cccc([C@H](C)N(C)C)c1)C12CC3CC(CC(C3)C1)C2` (stereo partly shown) [Compound 14, S-rivastigmine-rimantadine], the pIC50 [1] was 5.35, the “AChEI (%) 1 μM” value (AChE) was 28% and the “AChEI (%) 10 μM” value (AChE) was 77%. For the same compound, the “BuChEI (%) 10 μM” value (BuChE) was 13%.
